Test results taken from ChEMBL document CHEMBL6103654, “Design, Biological Characterization, and Discovery of Capromorelin Derivatives as Oral Growth Hormone Secretagogue Receptor Type 1a Agonist for the Treatment of Growth Hormone Deficiency” (J Med Chem, 2025).
The source made the active and inactive calls. No cut-off for these calls is given here.

Columns and labels:
[1] = Clearance in male dog plasma at 0.5 mg/kg, iv administered as single dose measured after 4 hrs; assay type: ADME, organism-based, Canis lupus familiaris
[2] = Genotoxicity in Salmonella typhimurium TA1535 by Ames test; assay type: toxicity; details: salmonella enterica subsp. enterica serovar typhimurium
[3] = Oral bioavailability in male Sprague-Dawley rat at 2 mg/kg administered as single dose measured after 4 hrs; assay type: ADME, organism-based; details: in vivo
[4] = Metabolic stability in dog liver microsome assessed as half life at 1 uM measured upto 60 mins in presence of NADPH by LC-MS/MS analysis; assay type: ADME, Canis lupus familiaris; details: liver microsomes
Rattus norvegicus [5] = test: Induction of growth hormone level in Juvenile Sprague-Dawley rat blood at 0.2 mg/kg, po administered as single dose measured after 4 hrs by ELISA method (reference value: 32.5+/-4.5 ng/mL); assay type: functional
Rattus norvegicus [6] = test: Induction of growth hormone level in adult Sprague-Dawley rat blood at 0.2 mg/kg, po administered as single dose measured after 10 mins by ELISA method (reference value: 13.7+/-7.2 ng/mL); assay type: functional
[7] = Metabolic stability in human liver microsome assessed as half life at 1 uM measured upto 60 mins in presence of NADPH by LC-MS/MS analysis; assay type: ADME; details: liver microsomes
Cytochrome P450 3A4 = Cytochrome P450 3A4 (Homo sapiens, UniProt P08684); test: Inhibition of CYP3A4 in human liver microsome using testosterone as substrate incubated for 5 min in presence of NADPH by UPLC-MS/MS analysis; assay type: ADME, microsomes
Sequence of Cytochrome P450 3A4 (P08684 whole entry): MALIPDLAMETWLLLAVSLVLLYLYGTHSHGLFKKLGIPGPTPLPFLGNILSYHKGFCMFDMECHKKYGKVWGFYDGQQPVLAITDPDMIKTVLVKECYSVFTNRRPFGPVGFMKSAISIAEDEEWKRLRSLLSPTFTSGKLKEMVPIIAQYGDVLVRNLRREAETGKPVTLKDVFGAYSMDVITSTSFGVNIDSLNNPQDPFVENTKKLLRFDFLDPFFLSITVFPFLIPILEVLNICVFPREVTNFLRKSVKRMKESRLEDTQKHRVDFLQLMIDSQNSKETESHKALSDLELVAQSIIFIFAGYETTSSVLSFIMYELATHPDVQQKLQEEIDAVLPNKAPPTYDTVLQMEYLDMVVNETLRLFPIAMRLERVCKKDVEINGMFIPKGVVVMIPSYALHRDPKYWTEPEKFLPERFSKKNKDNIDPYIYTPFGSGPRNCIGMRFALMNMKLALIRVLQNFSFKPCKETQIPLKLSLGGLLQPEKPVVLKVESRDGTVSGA

[8] = Metabolic stability in mouse liver microsome assessed as intrinsic clearance at 1 uM measured upto 60 mins in presence of NADPH by LC-MS/MS analysis; assay type: ADME; details: liver microsomes, read-out: CLH
[9] = Tmax in male mouse at 2 mg/kg, po administered as single dose measured after 4 hrs; assay type: ADME, organism-based; details: in vivo
[10] = Tmax in male monkey at 2 mg/kg, po administered as single dose measured after 4 hrs; assay type: ADME, organism-based, Macaca mulatta; details: rhesus monkey, in vivo
[11] = Metabolic stability in mouse liver microsome assessed as half life at 1 uM measured upto 60 mins in presence of NADPH by LC-MS/MS analysis; assay type: ADME; details: liver microsomes
[12] = Metabolic stability in dog liver microsome assessed as hepatic clearance at 1 uM measured upto 60 mins in presence of NADPH by LC-MS/MS analysis; assay type: ADME, Canis lupus familiaris; details: liver microsomes, read-out: CLH
Rattus norvegicus [13] = test: Induction of growth hormone level in adult Sprague-Dawley rat blood at 0.5 mg/kg, po administered as single dose measured immediately by ELISA method (reference value: 12.6+/-4.4 ng/mL); assay type: functional
[14] = Cmax in male Sprague-Dawley rat at 2 mg/kg, po administered as single dose measured after 4 hrs; assay type: ADME, organism-based; details: in vivo
Cytochrome P450 2C19 = Cytochrome P450 2C19 (Homo sapiens, UniProt P33261); test: Inhibition of CYP2C19 in human liver microsome incubated for 5 min in presence of NADPH by UPLC-MS/MS analysis; assay type: ADME, microsomes
Sequence of Cytochrome P450 2C19 (P33261 whole entry): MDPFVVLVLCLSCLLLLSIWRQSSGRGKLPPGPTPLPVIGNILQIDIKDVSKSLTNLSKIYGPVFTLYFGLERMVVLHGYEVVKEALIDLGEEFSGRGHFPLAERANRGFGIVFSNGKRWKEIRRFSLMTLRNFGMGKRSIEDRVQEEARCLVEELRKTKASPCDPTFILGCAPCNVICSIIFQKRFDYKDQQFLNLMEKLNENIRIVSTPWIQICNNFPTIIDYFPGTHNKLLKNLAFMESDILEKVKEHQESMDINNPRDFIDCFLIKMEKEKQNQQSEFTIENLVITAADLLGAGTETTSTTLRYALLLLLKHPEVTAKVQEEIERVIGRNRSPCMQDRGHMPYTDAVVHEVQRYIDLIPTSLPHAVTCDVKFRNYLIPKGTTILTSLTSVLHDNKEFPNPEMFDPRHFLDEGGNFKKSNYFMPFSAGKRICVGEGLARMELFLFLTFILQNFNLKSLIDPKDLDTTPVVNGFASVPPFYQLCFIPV

Rattus norvegicus [15] = test: Induction of growth hormone level in adult Sprague-Dawley rat blood at 0.1 mg/kg, po administered as single dose measured immediately by ELISA method (reference value: 12.6+/-4.4 ng/mL); assay type: functional
Rattus norvegicus [16] = test: Induction of growth hormone level in Juvenile Sprague-Dawley rat blood at 0.2 mg/kg, po administered as single dose measured after 2 hrs by ELISA method (reference value: 26.5+/-7.3 ng/mL); assay type: functional
[17] = Agonist activity at human GHSR expressed in CHO cells incubated for 60 min by FLIPR assay; assay type: cell-based; details: 1 h
[18] = Metabolic stability in rat liver microsome assessed as half life at 1 uM measured upto 60 mins in presence of NADPH by LC-MS/MS analysis; assay type: ADME; details: liver microsomes
Rattus norvegicus [19] = test: Induction of growth hormone level in Juvenile Sprague-Dawley rat blood at 0.1 mg/kg, po administered as single dose measured after 1 hr by ELISA method (reference value: 45.2+/-12.5 ng/mL); assay type: functional
Rattus norvegicus [20] = test: Induction of growth hormone level in 4 week-old female Sprague-Dawley rat assessed as increase in body weight at 2.5 mg/kg, po measured after 10 days; assay type: functional, organism-based; details: time 10.0 day
Rattus norvegicus [21] = test: Induction of growth hormone level in Juvenile Sprague-Dawley rat blood at 0.5 mg/kg, po administered as single dose measured after 10 mins by ELISA method (reference value: 23.2+/-5.6 ng/mL); assay type: functional
[22] = Volume of distribution in male mouse at 1 mg/kg, iv administered as single dose measured after 4 hrs; assay type: ADME, organism-based; details: in vivo

CC(C)(N)C(=O)N[C@H](COCc1ccccc1)C(=O)N1CCC2=NN(C3CC3)C(=O)[C@]2(Cc2ccccc2)C1
clearance [1]: 35 mL/min/kg | Activity [2]: Non-toxic | bioavailability [3]: 16.7% | half-life at 1 µM [4]: 10.3 min | Activity (Rattus norvegicus [5]): 43.5 ng/mL | Activity (Rattus norvegicus [6]): 228.6 ng/mL | half-life at 1 µM [7]: 11.3 min | IC50 (Cytochrome P450 3A4): > 30 µM | microsomal CLint at 1 µM [8]: 330 µL/min/mg | Tmax [9]: 15 min | Tmax [10]: 79.8 min | half-life at 1 µM [11]: 4.2 min | CLint scaled at 1 µM [12]: 237 mL/min/kg | Activity (Rattus norvegicus [13]): 14 ng/mL | Cmax [14]: 156 ng/mL | IC50 (Cytochrome P450 2C19): > 30 µM | Activity (Rattus norvegicus [15]): 21.2 ng/mL | Activity (Rattus norvegicus [16]): 32.3 ng/mL | EC50 [17]: 0.00055 µM | half-life at 1 µM [18]: 9.9 min | Activity (Rattus norvegicus [19]): 37.8 ng/mL | Activity (Rattus norvegicus [20]): Active | Activity (Rattus norvegicus [21]): 230.9 ng/mL | Vd [22]: 2.94 L/kg
